Here are results for 10 compounds from ChEMBL document CHEMBL1201862, “PubChem BioAssay data set” (2004).

Structures are written as SMILES.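 Exposure lasted 48 hours, with cells grown in 96-well plates and compounds tested at five concentrations. GI50 is the concentration that inhibits growth by half.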 The source made the active and inactive calls. Cut-off read from the data, not from the text of the source: active = GI50 up to about 1.1 µM and inactive = higher.

Some test systems named below: OVCAR-5; HCT-15; DU-145; UACC-257; Hs-578T; MOLT-4; MDA-N; HT-29; UACC-62; COLO 205; PC-3; K562; NCI/ADR-RES; NCI-H23; MDA-MB-231; SF-295; SNB-75; HCC 2998; OVCAR-4; HOP-92.
Test in all cases: NCI tumour cell line growth inhibition, 48 h

Take `CCOC(=O)c1cn2c(n1)sc1cc(C)c(C)cc12`: the GI50 was 16.8 µM (inactive) with OVCAR-5; 27.9 µM in the assay on HCT-15; 21.4 µM (inactive) in the assay on DU-145; 31.8 µM (inactive) with UACC-257; 27.6 µM (inactive) with Hs-578T; 29 µM (inactive) with MOLT-4. In addition, the GI50 is 6.04 µM (inactive) in the assay with MDA-N; 18 µM (inactive) with HT-29; 28.3 µM (inactive) with UACC-62; 26.5 µM (inactive) in the assay with COLO 205; 21.2 µM (inactive) in the assay with PC-3; 14.4 µM (inactive) in the assay with K562. Besides, the GI50 in the assay with NCI/ADR-RES is 27.7 µM (inactive); in the assay with NCI-H23 it was 35.7 µM (inactive); in the assay on MDA-MB-231, 24.3 µM (inactive); in the assay on SF-295, 32 µM (inactive); in the assay on SNB-75 it was 22.6 µM (inactive); in the assay on HCC 2998 it was 66.1 µM (inactive). The GI50 in the assay on OVCAR-4 is > 100 µM (inactive); in the assay with HOP-92, 25.4 µM (inactive).
In the case of `O=C(O)CCC(=O)c1ccc2ccc3cccc4ccc1c2c34`, the GI50 in the assay with OVCAR-5 was > 100 µM (inactive); in the assay with HCT-15 it was 38 µM; with DU-145, > 100 µM (inactive); with UACC-257, 33 µM (inactive); with Hs-578T, > 100 µM (inactive); in the assay with MOLT-4, 60.3 µM (inactive). In addition, the GI50 in the assay on MDA-N is > 100 µM (inactive); with HT-29, 63.8 µM (inactive); in the assay on UACC-62 it was > 100 µM (inactive); in the assay with COLO 205 it was 44.9 µM (inactive); in the assay with PC-3 it was 67.9 µM (inactive); with K562, 81.7 µM (inactive). Further, the GI50 in the assay on NCI/ADR-RES was 96.4 µM (inactive); with NCI-H23 it was > 100 µM (inactive); in the assay with MDA-MB-231, 64 µM (inactive); with SF-295 it was 70.6 µM (inactive); in the assay on SNB-75, > 100 µM (inactive); with HCC 2998 it was 21.4 µM (inactive). Moreover, the GI50 with OVCAR-4 and with HOP-92 was > 100 µM (inactive) in each case.
As for `N#CC(c1ccnc(Cl)n1)c1nc2ccccc2s1` (stereo not given), the GI50 with OVCAR-5 is 9.53 µM (inactive); in the assay with HCT-15, 3.44 µM; in the assay on DU-145, 19.6 µM (inactive); with UACC-257, 6.19 µM (inactive); in the assay on Hs-578T it was 7.74 µM (inactive); in the assay on MOLT-4, 3.55 µM (inactive). Further, the GI50 was 3.38 µM (inactive) with MDA-N; 2.88 µM (inactive) with HT-29; 3.21 µM (inactive) with UACC-62; 10.4 µM (inactive) in the assay on COLO 205; 3.78 µM (inactive) with PC-3; 2 µM (inactive) in the assay with K562. The GI50 in the assay on NCI/ADR-RES was 2.67 µM (inactive); in the assay with NCI-H23 it was 2.48 µM (inactive); in the assay on MDA-MB-231, 2.91 µM (inactive); with SF-295, 8.49 µM (inactive); in the assay with SNB-75 it was 2.36 µM (inactive); in the assay with HCC 2998, 25.4 µM (inactive). Besides, the GI50 in the assay with OVCAR-4 was 6.9 µM (inactive); in the assay with HOP-92, 2.77 µM (inactive).
On to `COc1ccc(NC2=NCCO2)c2c1CCCC2`, for which the GI50 in the assay on OVCAR-5 was 64.9 µM (inactive); in the assay with HCT-15 it was 31.6 µM; in the assay on DU-145, 51.2 µM (inactive); in the assay with UACC-257, 26.3 µM (inactive); in the assay with Hs-578T, 25.9 µM (inactive); in the assay with MOLT-4, 10.5 µM (inactive). Moreover, the GI50 with MDA-N was 35.6 µM (inactive); in the assay on HT-29 it was 46.8 µM (inactive); with UACC-62, 24.4 µM (inactive); with COLO 205 it was 28.2 µM (inactive); in the assay with PC-3, 26.7 µM (inactive); with K562, 28.3 µM (inactive). Also, the GI50 with NCI/ADR-RES was 27.6 µM (inactive); in the assay on NCI-H23, 25.5 µM (inactive); with MDA-MB-231, 43.8 µM (inactive); in the assay with SF-295, 27.3 µM (inactive); in the assay on SNB-75 it was 27.3 µM (inactive); in the assay on HCC 2998, 31.9 µM (inactive). Moreover, the GI50 is 58.7 µM (inactive) in the assay with OVCAR-4 and 19.8 µM (inactive) with HOP-92.
In the case of `N=C1C(=N)c2ccccc2-c2ccccc21`, the GI50 was 2 µM (inactive) in the assay on OVCAR-5; 1.55 µM in the assay with HCT-15; 1.49 µM (inactive) in the assay on DU-145; 0.692 µM (active) in the assay on UACC-257; 2.64 µM (inactive) in the assay with Hs-578T; 0.337 µM (active) with MOLT-4. For the same compound, the GI50 in the assay with MDA-N is 0.177 µM (active); in the assay with HT-29, 1.83 µM (inactive); with UACC-62 it was 1.39 µM (inactive); with COLO 205, 1.73 µM (inactive); in the assay on PC-3, 1.52 µM (inactive); in the assay on K562, 0.513 µM (active). Also, the GI50 was 0.492 µM (active) with NCI/ADR-RES; 0.6 µM (active) with NCI-H23; 0.313 µM (active) with MDA-MB-231; 1.62 µM (inactive) with SF-295; 1.82 µM (inactive) with SNB-75; 1.96 µM (inactive) in the assay on HCC 2998. Besides, the GI50 is 1.45 µM (inactive) in the assay with OVCAR-4 and 2.49 µM (inactive) in the assay on HOP-92.
Take `C=C1CC2[C@H](C)C(=O)CCC2(C)C2=C1C1CCC(C(C)CCC(=C)C(C)C(=O)O)C1(C)CC2=O` (stereo not given in full): the GI50 in the assay with OVCAR-5 was > 100 µM (inactive); with HCT-15, 40.5 µM; with DU-145, 53.1 µM (inactive); in the assay on UACC-257, 29.2 µM (inactive); with Hs-578T, > 100 µM (inactive); in the assay on MOLT-4, 16.8 µM (inactive). Also, the GI50 in the assay with MDA-N was 95.3 µM (inactive); in the assay on HT-29, 62.1 µM (inactive); in the assay on UACC-62 it was 51.8 µM (inactive); in the assay on COLO 205, 49.4 µM (inactive); in the assay with PC-3, 32.1 µM (inactive); with K562, 9.75 µM (inactive). In addition, the GI50 with NCI/ADR-RES is 84.1 µM (inactive); in the assay with NCI-H23 it was 41.9 µM (inactive); in the assay with MDA-MB-231, > 100 µM (inactive); in the assay on SF-295 it was 62.5 µM (inactive); in the assay on SNB-75, 95.5 µM (inactive); in the assay on HCC 2998, 47 µM (inactive). Moreover, the GI50 in the assay with OVCAR-4 is 48.4 µM (inactive); in the assay with HOP-92, 29.7 µM (inactive).
For `COC(=O)Cc1cc(O)c2c(c1O)C(=O)c1ccccc1C2=O`, the GI50 was > 100 µM (inactive) with OVCAR-5; over 100 µM in the assay with HCT-15; > 96.2 µM (inactive) in the assay on DU-145; > 100 µM (inactive) in the assay with UACC-257; 34 µM (inactive) in the assay on Hs-578T; > 84.5 µM (inactive) in the assay on MOLT-4. Also, the GI50 is > 100 µM (inactive) with MDA-N; > 46.5 µM (inactive) in the assay with HT-29; > 100 µM (inactive) in the assay with UACC-62; > 100 µM (inactive) in the assay on COLO 205; > 100 µM (inactive) in the assay on PC-3; > 100 µM (inactive) in the assay on K562. Further, the GI50 with NCI/ADR-RES is 71.9 µM (inactive); with NCI-H23 it was > 56 µM (inactive); in the assay with MDA-MB-231, 26.5 µM (inactive); in the assay with SF-295, 27.6 µM (inactive); in the assay with SNB-75, 20.6 µM (inactive); in the assay with HCC 2998, > 100 µM (inactive). Moreover, the figures for the GI50 in the assay with OVCAR-4 and in the assay on HOP-92 were > 100 µM (inactive) and 16.1 µM (inactive), respectively.
On to `CC(C)=CCC/C(=C\CC/C(=C\CCc1ccoc1)C(=O)O)C(=O)O`, for which the GI50 was > 100 µM (inactive) in the assay on OVCAR-5; over 100 µM with HCT-15; > 100 µM (inactive) in the assay on DU-145; > 100 µM (inactive) in the assay on UACC-257; > 100 µM (inactive) with Hs-578T; > 100 µM (inactive) with MOLT-4. Further, the GI50 in the assay on MDA-N, in the assay on HT-29, with UACC-62, in the assay with COLO 205, in the assay on PC-3 and with K562 was > 100 µM (inactive) each time. Moreover, the GI50 with NCI/ADR-RES, in the assay on NCI-H23, in the assay with MDA-MB-231, in the assay on SF-295, in the assay with SNB-75 and in the assay with HCC 2998 was > 100 µM (inactive) in each case. For the same compound, the GI50 in the assay on OVCAR-4 and in the assay with HOP-92 was > 100 µM (inactive) each time.
Regarding `O=C(O)c1ccc(C(=O)c2ccccc2C(=O)O)cc1C(=O)O`, the GI50 was > 100 µM (inactive) in the assay on OVCAR-5; over 100 µM in the assay with HCT-15; > 100 µM (inactive) with DU-145; > 100 µM (inactive) in the assay on UACC-257; > 100 µM (inactive) in the assay on Hs-578T; > 100 µM (inactive) with MOLT-4. Moreover, the GI50 in the assay on MDA-N, with HT-29, in the assay with UACC-62, with COLO 205, in the assay on PC-3 and in the assay on K562 was > 100 µM (inactive) each time. In addition, the GI50 in the assay with NCI/ADR-RES, in the assay with NCI-H23, in the assay with MDA-MB-231, with SF-295, in the assay on SNB-75 and in the assay on HCC 2998 was > 100 µM (inactive) throughout. Also, the GI50 in the assay with OVCAR-4 and with HOP-92 was > 100 µM (inactive) in each case.
With `Oc1cccc2c(Br)ccnc12`, the GI50 in the assay with OVCAR-5 is 6.08 µM (inactive); in the assay with HCT-15 it was 2.27 µM; in the assay with DU-145, 3.89 µM (inactive); with UACC-257, 2.48 µM (inactive); in the assay on Hs-578T, 8.55 µM (inactive); in the assay with MOLT-4, 0.855 µM (active). Besides, the GI50 was 5.71 µM (inactive) in the assay with MDA-N; 5.4 µM (inactive) with HT-29; 1.47 µM (inactive) in the assay on UACC-62; 11.2 µM (inactive) in the assay on COLO 205; 4.17 µM (inactive) with PC-3; 0.593 µM (active) in the assay with K562. The GI50 in the assay with NCI/ADR-RES was 2.08 µM (inactive); with NCI-H23 it was 3.94 µM (inactive); in the assay with MDA-MB-231, 2.75 µM (inactive); with SF-295, 1.46 µM (inactive); with SNB-75, 7.59 µM (inactive); in the assay with HCC 2998 it was 14.7 µM (inactive). The GI50 was 2.55 µM (inactive) in the assay on OVCAR-4 and 5.71 µM (inactive) in the assay with HOP-92.
